{"source": "paper PMC6574176", "about": "(Biomaterials, 2019)", "origin": "cited, not measured here", "settings": "rapidly bio-eliminated"}
{"smiles": "CC1(C)C(/C=C/C=C/C=C/C=C2\\N(CCCCS(=O)(=O)O)c3ccc4ccccc4c3C2(C)C)=[N+](CCCCS(=O)(=O)[O-])c2ccc3ccccc3c21", "note": "[free ICG, Indocyanine Green]", "values": [{"measurement": "t1/2 of free ICG", "result": "2 to 4", "unit": "min"}]}
